{"source": "patent US20070042040A1", "about": "“Methods and compositions using gonadotropin hormone releasing hormone” (priority 2003, published 2007)", "origin": "cited, not measured here", "settings": "mouse models", "data": [{"smiles": "C[C@]12CC[C@H]3[C@@H](CCC4=C[C@H](O)CC[C@@H]43)[C@@H]1CC[C@@H]2O", "note": "[(3α,17β)-estr-4-ene-3,17-diol]", "values": [{"measurement": "effect on bone loss", "result": "reverse bone loss"}]}]}
